# Biological target: T1, GST-tagged ROR gamma ligand binding domain (LBD) (Homo sapiens, UniProt P51449)
# T1 construct: purchased Invitrogen
# T1 sequence (P51449 269-508 limits assumed): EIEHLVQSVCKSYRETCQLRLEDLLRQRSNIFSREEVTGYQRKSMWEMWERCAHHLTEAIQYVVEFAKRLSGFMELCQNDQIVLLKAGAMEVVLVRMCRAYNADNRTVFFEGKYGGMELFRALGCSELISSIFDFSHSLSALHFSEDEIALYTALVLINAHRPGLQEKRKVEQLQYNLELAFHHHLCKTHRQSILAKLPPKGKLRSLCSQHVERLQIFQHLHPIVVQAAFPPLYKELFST
# Test: TR-FRET assay for ROR gamma (LanthaScreen, Fluorescein-D22 co-activator peptide recruitment)
# Assay type: biochemical
# Conditions: for inhibition at 1 µM: 1 μM compound; for inhibition at 1 µM / inhibition at 10 µM: TR-FRET ratio 520/495; for inhibition at 10 µM: 10 μM compound; for IC50: dose response curve, class symbols
# Text: The compounds described herein were screened for ROR gamma modulator activity using the TR-FRET assay (LanthaScreen™ available from Invitrogen of Carlsbad, Calif.) as described in JBC 2011, 286, 26: 22707-10; and Drug Metabolism and Disposition 2009, 37, 10: 2069-78.
# The assay is based on the principle that binding of the agonist to the ROR gamma causes a conformational change around helix 12 in the ligand binding domain, resulting in higher affinity for the co-activator peptide. ROR gamma being constitutively active, the Fluorescein-D22 co-activator peptide used in the assay is recruited in the absence of a ligand. Binding of the co-activator peptide, causes an increase in the TR-FRET signal while binding of an antagonist decreases the recruitment of the co-activator peptide, causing a decrease in the TR-FRET signal compared to control with no compound. The assay was performed using a two-step procedure, pre-incubation step with the compound followed by the detection step on addition of the anti-GST tagged terbium (Tb) and fluorescein tagged fluorophores as the acceptor.
# Test compounds or reference compounds such as T0901317 (Calbiochem) were dissolved in dimethylsulfoxide (DMSO) to prepare 10.0 mM stock solutions and diluted to the desired concentration. The final concentration of DMSO in the reaction was 4% (v/v). The assay mixture was prepared by mixing 10 nM of the GST-tagged ROR gamma ligand binding domain (LBD) in the assay buffer containing 25 mM HEPES, 100 mM NaCl, 5 mM DTT and 0.01% BSA with or without the desired concentration of the compound. The reaction was incubated at 22° C. for 1 hour. The pre-incubation step was terminated by addition of the detection mixture containing 300 nM Fluorescein-D22 co-activator peptide and 10 nM lantha screen Tb-anti GST antibody into the reaction mixture. After shaking for 5 minutes the reaction was further incubated for 1 hour at room temperature and read […] on an Infinite F500 reader as per the kit instructions (Invitrogen). The inhibition of test compound was calculated based on the TR-FRET ratio of 520/495. The activity was calculated as a percent of control reaction. IC50 values were calculated from dose response curve by nonlinear regression analysis using GraphPad Prism software.
# Percentage inhibition at concentrations of 1.0 μM and 10.0 μM are given in the table along with IC50 (nM) details for selected examples.
SMILES,inhibition at 1 µM [%],inhibition at 10 µM [%],IC50 [µM]
"CCOC(=O)C(F)(F)c1ccc(CC(=O)Nc2ccc(C(=O)N(C)c3ccc(Cl)cc3)cc2)cc1 [Example 1, Ethyl 2-(4-(2-((4-((4-chlorophenyl)(methyl)carbamoyl)phenyl)amino)-2-oxoethyl)phenyl)-2,2-difluoroacetate]",27.6,64.5,–
"CN(C(=O)c1ccc(NC(=O)Cc2ccc(C(F)(F)C(N)=O)cc2)cc1)c1ccc(Cl)cc1 [Example 2, 4-(2-(4-(2-amino-1,1-difluoro-2-oxoethyl)phenyl)acetamido)-N-(4-chlorophenyl)-N-methylbenzamide]",20.7,43.4,–
"CN(C(=O)c1ccc(NC(=O)Cc2ccc(C(F)(F)CO)cc2)cc1)c1ccc(Cl)cc1 [Example 3, N-(4-chlorophenyl)-4-(2-(4-(1,1-difluoro-2-hydroxyethyl)phenyl)acetamido)-N-methylbenzamide]",75,85.8,> 0.1
CCC(F)(F)c1ccc(CC(=O)Nc2ccc(C(=O)N(C)c3cc(Cl)ccc3Cl)cc2)cc1 [Example 4],88.5,91.1,< 0.05
"CC(O)C(F)(F)c1ccc(CC(=O)Nc2ccc(C(=O)N(C)c3cc(Cl)ccc3Cl)cc2)cc1 (stereo not drawn) [Example 5, N-(2,5-Dichlorophenyl)-4-(2-(4-(1,1-difluoro-2-hydroxypropyl)phenyl)acetamido)-N-methylbenzamide]",87.6,94.3,< 0.05
CCC(F)(F)c1ccc(CC(=O)Nc2ccc(C(=O)N(C)c3ccccc3Cl)cc2)cc1 [Example 6],90.9,91.2,< 0.05
Cc1cc(C)cc(N(C)C(=O)c2ccc(NC(=O)Cc3ccc(C(F)(F)CO)cc3)cc2)c1 [Example 7],87.5,95.1,< 0.05
Cc1cc(C)cc(N(C)C(=O)c2ccc(NC(=O)Cc3ccc(C(F)(F)C(C)O)cc3)cc2)c1 (stereo not drawn) [Example 8],94.8,96.5,< 0.05
"Cc1cc(C)cc(N(C)C(=O)c2ccc(NC(=O)Cc3ccc(C(F)(F)C(C)(C)O)cc3)cc2)c1 [Example 9, 4-(2-(4-(1,1-difluoro-2-hydroxy-2-methylpropyl)phenyl)acetamido)-N-(3,5-dimethylphenyl)-N-methylbenzamide]",86.2,97,> 0.1
COCC(F)(F)c1ccc(CC(=O)Nc2ccc(C(=O)N(C)c3cc(C)cc(C)c3)cc2)cc1 [Example 10],93.2,95.3,< 0.05
CCC(F)(F)c1ccc(CC(=O)Nc2ccc(C(=O)N(C)c3cc(C)cc(C)c3)cc2)cc1 [Example 11],90.1,92.9,< 0.05
Cc1cc(-c2ccccc2F)cc(N(C)C(=O)c2ccc(NC(=O)Cc3ccc(C(F)(F)C(C)O)cc3)cc2)c1 (stereo not drawn) [Example 12],89.4,93.7,0.05 to 0.1
CCC(F)(F)c1ccc(CC(=O)Nc2ccc(C(=O)N(C)c3cc(C)cc(-c4ccccc4F)c3)cc2)cc1 [Example 13],87.5,90.6,0.05 to 0.1
CCC(F)(F)c1ccc(CC(=O)Nc2ccc(C(=O)N(CC(F)(F)F)c3cccc(Cl)c3)cc2)cc1 [Example 14],84,87.6,< 0.05
CC(O)C(F)(F)c1ccc(CC(=O)Nc2ccc(C(=O)N(C)c3ccccc3Cl)cc2)cc1 (stereo not drawn) [Example 15],85.5,92.8,< 0.05
COCC(F)(F)c1ccc(CC(=O)Nc2ccc(C(=O)N(C)[C@H](C)c3ccc(Cl)cc3)cc2)cc1 [Example 16],84.5,93.7,> 0.1
CCC(F)(F)c1ccc(CC(=O)Nc2ccc(C(=O)N(C)[C@H](C)c3ccc(Cl)cc3)cc2)cc1 [Example 17],87.1,90.8,< 0.05
CCC(F)(F)c1ccc(CC(=O)Nc2ccc(C(=O)N(C)[C@@H](c3ccc(Cl)cc3)C3CC3)cc2)cc1 [Example 18],87.4,90,< 0.05

SMILES,inhibition at 1 µM [%],inhibition at 10 µM [%],IC50 [µM]
CC(O)C(F)(F)c1ccc(CC(=O)Nc2ccc(C(=O)N(C)[C@@H](c3ccc(Cl)cc3)C3CC3)cc2)cc1 (stereo partly drawn) [Example 19],82.6,92.8,0.05 to 0.1
CCC(F)(F)c1ccc(CC(=O)Nc2ccc(C(=O)N(C)[C@@H](C)c3ccc(Cl)cc3)cc2)cc1 [Example 20],61.5,75,–
"CC(O)C(F)(F)c1ccc(CC(=O)Nc2ccc(C(=O)N(C)c3cc(Cl)cc(Cl)c3)cc2)cc1 (stereo not drawn) [Example 21, N-(3,5-dichlorophenyl)-4-(2-(4-(1,1-difluoro-2-hydroxypropyl)phenyl)acetamido)-N-methylbenzamide]",82.2,87.9,< 0.05
Cc1ccc(N(C)C(=O)c2ccc(NC(=O)Cc3ccc(C(F)(F)C(C)O)cc3)cc2)c(Cl)c1 (stereo not drawn) [Example 23],88.8,93.2,< 0.05
Cc1cc(Cl)ccc1N(C)C(=O)c1ccc(NC(=O)Cc2ccc(C(F)(F)C(C)O)cc2)cc1 (stereo not drawn) [Example 24],82.6,88.7,< 0.05
CC(O)C(F)(F)c1ccc(CC(=O)Nc2ccc(C(=O)N(C)c3ccc(Cl)cc3Cl)cc2)cc1 (stereo not drawn) [Example 25],82,90,< 0.05
CC(O)C(F)(F)c1ccc(CC(=O)Nc2ccc(C(=O)N(C)c3cccc(Cl)c3F)cc2)cc1 (stereo not drawn) [Example 26],86.4,93.2,< 0.05
Cc1ccc(Cl)c(N(C)C(=O)c2ccc(NC(=O)Cc3ccc(C(F)(F)C(C)O)cc3)cc2)c1 (stereo not drawn) [Example 27],90.1,92,< 0.05
Cc1ccc(F)c(N(C)C(=O)c2ccc(NC(=O)Cc3ccc(C(F)(F)C(C)O)cc3)cc2)c1 (stereo not drawn) [Example 28],90.5,93.9,< 0.05
"Cc1ccc(N(C)C(=O)c2ccc(NC(=O)Cc3ccc(C(F)(F)[C@@H](C)O)cc3)cc2)c(Cl)c1 [Example 29, (R)—N-(2-Chloro-4-methylphenyl)-4-(2-(4-(1,1-difluoro-2-hydroxypropyl)phenyl)acetamido)-N-methylbenzamide]",80.7,87.1,< 0.05
"Cc1ccc(N(C)C(=O)c2ccc(NC(=O)Cc3ccc(C(F)(F)[C@H](C)O)cc3)cc2)c(Cl)c1 [Example 30, (S)—N-(2-Chloro-4-methylphenyl)-4-(2-(4-(1,1-difluoro-2-hydroxypropyl)phenyl)acetamido)-N-methylbenzamide]",85.5,88.7,< 0.05
Cc1cccc(Cl)c1N(C)C(=O)c1ccc(NC(=O)Cc2ccc(C(F)(F)C(C)O)cc2)cc1 (stereo not drawn) [Example 31],79.1,86.6,0.05 to 0.1
Cc1cc(C)c(N(C)C(=O)c2ccc(NC(=O)Cc3ccc(C(F)(F)C(C)O)cc3)cc2)c(C)c1 (stereo not drawn) [Example 32],84.9,95,0.05 to 0.1
Cc1cc(C)c(N(C)C(=O)c2ccc(NC(=O)Cc3ccc(C(F)(F)C(C)O)cc3)cc2)c(Cl)c1 (stereo not drawn) [Example 33],86.8,90.2,< 0.05
Cc1ccc(N(C)C(=O)c2ccc(NC(=O)Cc3ccc(C(F)(F)C(C)O)cc3)cc2)c(C2CC2)c1 (stereo not drawn) [Example 34],91.8,92.6,< 0.05
Cc1cc(C)cc(N(C)C(=O)c2ccc(NC(=O)Cc3ccc(C(F)(F)[C@@H](C)O)cc3)cc2)c1 [Example 36],89.7,94.5,< 0.05
Cc1cc(N(C)C(=O)c2ccc(NC(=O)Cc3ccc(C(F)(F)C(C)O)cc3)cc2)c(F)cc1Cl (stereo not drawn) [Example 37],93.9,96.3,< 0.05

# Source: patent publication US20190144375A1, “NOVEL CARBOCYCLIC COMPOUNDS AS ROR GAMMA MODULATORS” (Glenmark Pharmaceuticals S.A., priority 2015, published 2019)
